Assays:
[1] = target: T1, E. coli apo-tryptophanase (TnaA) (Escherichia coli, UniProt P0A853); assay: In vitro tryptophanase assay (indole production by purified TnaA, Kovac's reagent); assay type: biochemical
T1 construct: purchased Sigma-Aldrich
Description: E. coli apo-tryptophanase (Sigma-Aldrich) was resuspended in 1 ml 100 mM potassium phosphate pH 8 buffer, aliquoted and kept at −20° C. 5 μl of apo-tryptophanase were added to 120 μl of 100 mM potassium phosphate pH 8 buffer with 1 mM pyrodxal-5-phosphate (PLP) and various treatments (NaCl, NaHS, L-cysteine, DTT or Na2S4) and incubated for 45 min at 37° C. Then 125 μl of 100 mM potassium phosphate with 5 mM L-tryptophan were added and the samples were incubated for 1 h at 37° C. Then 250 μl of 20% TCA were added to the samples, followed by a 15 min incubation on ice to precipitate TnaA. […] For the WT and ΔdecR TnaA activity assay, TnaA was purified from 10 ml bacterial cultures grown for 3 h in LB and then supplemented with 5 mM L-cysteine for 1 h, using the His-Spin protein miniprep kit (Zymo research). The purified protein was diluted 1:10 in 250 μl of 100 mM potassium phosphate pH 8 buffer with 1 mM PLP and 5 mM L-tryptophan and incubated for 1 h at 37° C., further processing was performed as mentioned above. TnaA activity was normalized to purified protein concentration, measured using BCA assay kit (Thermo Fisher).

E. coli lysates = assay: Pull-down of S-sulfhydrated proteins from E. coli lysates (Coomassie / silver stain)
E. coli TnaA = target: T2, E. coli TnaA (Escherichia coli, UniProt P0A853); assay: TnaA S-sulfhydration by pull-down and Western blot (E. coli lysates, purified TnaA); assay type: biochemical
T2 construct: made in house; host or cells: E. coli K-12 carrying the chromosomal tnaA-his allele under its native promoter (W3110 for purification)
T2 sequence (P0A853 other isoform, or with tags, fused parts or gaps): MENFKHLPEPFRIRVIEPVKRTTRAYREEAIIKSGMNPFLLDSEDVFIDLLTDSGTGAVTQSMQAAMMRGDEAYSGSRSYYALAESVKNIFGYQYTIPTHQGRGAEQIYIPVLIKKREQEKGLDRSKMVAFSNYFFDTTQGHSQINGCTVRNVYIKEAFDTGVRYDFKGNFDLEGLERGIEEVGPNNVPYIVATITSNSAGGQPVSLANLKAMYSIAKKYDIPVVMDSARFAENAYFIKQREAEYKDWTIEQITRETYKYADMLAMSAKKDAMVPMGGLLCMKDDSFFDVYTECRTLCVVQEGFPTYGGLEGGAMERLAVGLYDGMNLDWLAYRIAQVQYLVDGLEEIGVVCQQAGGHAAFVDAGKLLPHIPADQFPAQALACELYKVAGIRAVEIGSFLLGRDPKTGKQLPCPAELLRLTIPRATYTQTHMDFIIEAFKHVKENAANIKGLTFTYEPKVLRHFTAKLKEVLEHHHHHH
Description: TnaA purity was determined by Coomassie blue staining.

WT E. coli cultures = assay: Indole in E. coli culture supernatants (Kovac's reagent and LC-MS/MS); assay type: cell-based; details: LB broth supplemented
Description: (§1) E. coli K-12 BW25113 strain were used in all the experiments (H2S production, indole production and in vivo experiments). For technical reasons, E. coli K-12 MG1655 was used in the cloning process to generate ΔdecR and tnaA-his, and E. coli K-12 W3110 was used for expressing and purifying TnaA-His. Bacteria were grown in LB broth (Merck) at 37° C. with shaking (250 rpm) aerobically or without shaking anaerobically and where mentioned, LB was supplemented with L-cysteine (Sigma-Aldrich), sodium hydrosulfide (Sigma-Aldrich) and/or L-tryptophan (Sigma-Aldrich). For selection on LB+Chloramphenicol (Cm) agar plates, a concentration of 10 μg/ml Cm was used. The E. coli tnaA739::kan strain was obtained from Yale University Coli Genetic Stock Center (CGSC) as part of the Keio collection (Baba et al., 2006). […]
The TMT fractions were analyzed by LC-MS3 on an Orbitrap Fusion™ Lumos™ Tribrid™ mass spectrometer. Labelled peptide samples were analyzed with an LC-MS3 data collection strategy (McAlister G C et al (2014) Anal. Chem. 86:7150-8) on an Orbitrap Fusion mass spectrometer (Thermo Fisher Scientific) equipped with a Thermo Easy-nLC 1200 for online sample handling and peptide separations. […] E. coli TnaA-His samples were analyzed at the Mass Spectrometry and Proteomics Resource Laboratory. […]

E. coli = E. coli sulfide (H2S) production from L-cysteine in culture (lead acetate, methylene blue) and growth; assay type: cell-based; details: LB supplemented with cysteine, aerobic or anaerobic
Description: as §1, with “used.” for “used. The E. coli tnaA739::kan strain was obtained from Yale University Coli Genetic Stock Center (CGSC) as part of the Keio collection (Baba et al., 2006).”
Lead acetate paper was prepared by incubating pre-cut Whatman paper in 20 mM lead acetate solution for 20 min at room temperature and then was dried for 20 min at 110° C. and kept in the dark (Hine and Mitchell, 2017). […] 200 μl were plated in 96-well plates in duplicate and analyzed by lead acetate sulfide assay as described above. […] The samples were vortexed briefly and incubated for 20 min at 37° C., thereafter they were centrifuged for 4 min at max speed and the supernatants were transferred to a 96-well plate to determine absorbance at OD670 nm. […] Then 300 μl of DPD/FeCl3 were added and the samples were incubated at 37° C. for 20 min, centrifuged for 4 min at max speed and absorbance was measured in OD670 nm. […]

[2] = treated E. coli lysates, Western blot

T1 sequence (P0A853 whole entry): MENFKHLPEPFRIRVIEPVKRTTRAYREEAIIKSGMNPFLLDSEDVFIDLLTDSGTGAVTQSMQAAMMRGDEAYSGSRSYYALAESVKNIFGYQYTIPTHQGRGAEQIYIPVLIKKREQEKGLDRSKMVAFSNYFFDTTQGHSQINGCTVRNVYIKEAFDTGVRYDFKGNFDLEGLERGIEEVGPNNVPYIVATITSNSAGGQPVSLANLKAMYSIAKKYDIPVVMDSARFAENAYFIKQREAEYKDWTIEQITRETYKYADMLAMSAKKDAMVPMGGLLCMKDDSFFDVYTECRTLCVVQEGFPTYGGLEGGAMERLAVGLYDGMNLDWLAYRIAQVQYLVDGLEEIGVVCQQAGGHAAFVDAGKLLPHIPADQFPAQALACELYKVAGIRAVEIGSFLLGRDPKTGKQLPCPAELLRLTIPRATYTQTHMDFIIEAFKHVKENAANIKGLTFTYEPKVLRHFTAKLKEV

| SMILES | S-sulfhydration of proteins (E. coli lysates; treatment of bacterial lysates) | TnaA S-sulfhydration (E. coli TnaA; [2]) | indole concentrations in the supernatants (WT E. coli cultures) | also measured |
| --- | --- | --- | --- | --- |
| O[C@H](CS)[C@H](O)CS (racemic) [DTT, dithiothreitol] | – | – | – | increase of TnaA activity ([1]; assay control): 318% |
| OO [H2O2] | reduced the detection of S-sulfhydration proteins | reduced | – | – |
| [Na+].[Na+].[S-]SS[S-] [Na2S4, disodium tetrasulfide] | – | – | – | reduction of TnaA enzymatic activity [1]: 60%; TnaA S-sulfhydration (E. coli TnaA; purified E. coli TnaA, incubation): led to TnaA S-sulfhydration |
| S [NaHS, sodium hydrosulfide] | induced higher S-sulfhydration levels | increased | reduced indole concentrations | – |
| N[C@@H](CS)C(=O)O [cysteine, L-cysteine] | – | – | reduced indole concentrations | S-sulfhydration of proteins (E. coli lysates; lysates of E. coli grown in supplemented media vs LB alone): higher level of S-sulfhydration; E. coli growth (E. coli): without any effects on growth; sulfide production by E. coli (E. coli; lead acetate assay): dose-dependent manner |

Reference: US20210260009A1, “METHODS AND COMPOSITIONS FOR THE TREATMENT OF A RENAL DISEASE” (priority 2020, published 2021)
